Entries after “also recorded” stand apart in the source; their conditions may differ. Read-outs that look alike come from different tables or passages of the source. Values belong to the molecule of their own block, whether it stands above or below them.
How the values were obtained:
[1] = system: parathyroid cell calcium receptor; type: cell-based; details: for response of bovine parathyroid cells or Xenopus oocytes expressing calcium receptors to mGluR agonists: bovine parathyroid cells or calcium receptor-expressing Xenopus oocytes; for mobilization of intracellular Ca2+: 500 μM
[2] = biological target: T1, bovine parathyroid cell calcium receptor (BoPCaR 1) (Bos taurus, UniProt P35384); experiment: Cl- current in Xenopus oocytes expressing BoPCaR 1; type: cell-based
T1 construct: Xenopus oocytes were injected with BoPCaR 1, the 5.3 Kb cDNA encoding a bovine parathyroid cell calcium receptor; expressed in transfected cells; host or cells: Xenopus laevis oocytes injected with cRNA/cDNA of BoPCaR 1
T1 sequence (P35384 20-1085): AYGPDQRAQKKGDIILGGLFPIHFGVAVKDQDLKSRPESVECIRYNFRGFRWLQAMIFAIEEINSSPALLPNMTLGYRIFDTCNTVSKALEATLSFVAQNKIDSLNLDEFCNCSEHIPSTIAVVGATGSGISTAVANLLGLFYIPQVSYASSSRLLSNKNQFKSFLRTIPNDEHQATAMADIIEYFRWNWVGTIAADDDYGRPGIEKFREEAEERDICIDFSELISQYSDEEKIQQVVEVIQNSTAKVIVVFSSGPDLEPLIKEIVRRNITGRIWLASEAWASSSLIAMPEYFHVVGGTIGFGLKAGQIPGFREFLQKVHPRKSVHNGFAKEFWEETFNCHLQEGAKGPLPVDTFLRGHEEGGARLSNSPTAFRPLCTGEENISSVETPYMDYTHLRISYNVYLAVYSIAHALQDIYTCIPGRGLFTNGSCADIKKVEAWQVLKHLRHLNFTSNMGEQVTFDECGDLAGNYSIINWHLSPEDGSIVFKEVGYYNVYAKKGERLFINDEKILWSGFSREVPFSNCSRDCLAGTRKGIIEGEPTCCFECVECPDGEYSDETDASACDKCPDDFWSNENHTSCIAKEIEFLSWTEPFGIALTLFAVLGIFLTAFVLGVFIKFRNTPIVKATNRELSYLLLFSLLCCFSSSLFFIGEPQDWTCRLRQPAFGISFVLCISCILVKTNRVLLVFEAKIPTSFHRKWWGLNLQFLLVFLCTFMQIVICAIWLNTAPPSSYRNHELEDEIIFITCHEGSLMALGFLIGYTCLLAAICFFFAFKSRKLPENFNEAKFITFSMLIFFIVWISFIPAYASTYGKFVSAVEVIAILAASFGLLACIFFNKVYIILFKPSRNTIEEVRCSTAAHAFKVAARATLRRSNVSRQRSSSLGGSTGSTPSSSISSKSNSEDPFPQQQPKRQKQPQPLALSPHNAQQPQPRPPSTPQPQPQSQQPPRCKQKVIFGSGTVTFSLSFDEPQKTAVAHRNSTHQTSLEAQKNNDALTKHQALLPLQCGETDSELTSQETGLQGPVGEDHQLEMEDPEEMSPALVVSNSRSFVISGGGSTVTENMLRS
Description: Following incubation, an oocyte was placed into a 100-μl plastic chamber and superfused with MBS at a flow rate of 0.5 ml/min using a peristaltic pump. Test molecules or inorganic polycations were added by rapidly moving the tubing into different buffers. Recording and current-passing electrodes were constructed from thin-wall capillary tubing pulled to a resistance of 1-3 Mohms and filled with 3M KCl. […] Currents were recorded directly onto a strip chart recorder.
The techniques used to clone the parathyroid calcium receptor are briefly described in this example; a more complete description of the techniques is provided in preceding sections, which describe techniques which may be used to clone additional forms of the Ca^2+ -receptor from other cell types. Poly(A^+)-enriched mRNA was initially prepared from bovine parathyroid glands by extracting with guanidinium thiocyanate, centrifugation through CsCl and oligo(dT) cellulose chromatography. […] No such currents were elicited in control eggs injected with water.
These responses are mediated by the following series of biochemical events:
Xenopus oocytes were injected with BoPCaR 1, the 5.3 Kb cDNA encoding a bovine parathyroid cell calcium receptor as described in Example 25. After two to three days, Cl^- currents were examined in the oocytes using a two-electrode voltage clamp.
Xenopus oocytes were injected with BoPCaR 1 as described in Example 25. After two to three days, Cl^- currents were examined in the oocytes using two electrode voltage clamp.

net positive charge = type: physicochemical
[3] = system: increases in [Ca2+]i elicited by extracellular Ca2+ in bovine parathyroid cells; experiment: block of extracellular Ca2+-induced [Ca2+]i increase / Ca2+ influx in bovine parathyroid cells; type: cell-based

Molecule: N[C@@]1(C(=O)O)CC[C@@H](C(=O)O)C1 (relative stereo) [trans-ACPD]
response of bovine parathyroid cells or Xenopus oocytes expressing calcium receptors to mGluR agonists [1]: did not respond

Molecule: CC1=C(C(=O)OC(C)C)C(c2cccc3nonc23)C([N+](=O)[O-])=C(C)N1 (single isomer, unassigned; (+)) [(+) 202-791]
effect on basal [Ca2+]i or increases evoked by extracellular Ca2+ ([1]; 1 μM): None

Molecule: CC1=C(C(=O)OC(C)C)C(c2cccc3nonc23)C([N+](=O)[O-])=C(C)N1 (single isomer, unassigned; (-)) [(-) 202-791]
effect on basal [Ca2+]i or increases evoked by extracellular Ca2+ ([1]; 1 μM): None

effect on activated chloride currents [2]: blocks the currents
Molecule: O=C(O)c1c2ccccc2cc2ccccc12 [9AC]

Molecule: CNc1ccc2oc(C[C@H]3O[C@@]4(CC[C@H]3C)O[C@H]([C@H](C)C(=O)c3ccc[nH]3)[C@H](C)C[C@H]4C)nc2c1C(=O)O [A23187]
effect on activated chloride currents [2]: activated

Molecule: N=C(N)NCCC[C@H](N)C(=O)NCCCNCCCNCCCCCNC(=O)[C@H](CC(N)=O)NC(=O)Cc1ccc(O)cc1O [Argiotoxin-636]
increase in [Ca2+]i (words) ([1]; 400 μM): did not elicit increases | potentiation of cytosolic Ca2+ response to extracellular Ca2+ ([1]; 400 μM): did potentiate cytosolic | increase in [Ca2+]i (words) ([1]; tested at concentrations similar to 100 to 300 μM): had no effect | net positive charge (net positive charge): +4

Molecule: N=C(N)NCCC[C@H](N)C(=O)NCCCNCCCNCCCCCNC(=O)[C@H](CC(N)=O)NC(=O)Cc1c[nH]c2cccc(O)c12 [Argiotoxin-659]
concentrations evoking transient increases in [Ca2+]i ([1]; bovine parathyroid cells): 100 to 300 µM | EC50 ([1]; read-out: EC50 (Table 1), parathyroid cells, screened as in Example 1): 300 µM | EC50 ([1]; read-out: EC50 for mobilization of intracellular Ca2+, bovine parathyroid cells): 300 µM | Net (+) Charge (Table 1) (net positive charge): +4 | net positive charge (net positive charge): +4

Molecule: COC(=O)C1=C(C)NC(C)=C([N+](=O)[O-])C1c1ccccc1C(F)(F)F (stereo not drawn) [BAY K 8644]
effect on basal [Ca2+]i or increases evoked by extracellular Ca2+ ([1]; 1 μM): None

Molecule: NC[C@H]1O[C@H](O[C@H]2[C@H](O)[C@@H](O[C@H]3O[C@H](CO)[C@@H](O)[C@H](N)[C@H]3O)[C@H](N)C[C@@H]2N)[C@H](N)[C@@H](O)[C@@H]1O [Bekanamycin]
EC50 ([1]; read-out: EC50 for mobilization of intracellular Ca2+ (Table 4), screened as in Example 1): 200 µM | Net (+) Charge (Table 1) (net positive charge): +5 | net positive charge (net positive charge; pH 7.3): +5

net positive charge (net positive charge): +2
Molecule: NCCCCCN [Cadaverine, cadaverine]

Molecule: COc1ccc(CCN(C)CCCC(C#N)(c2cc(OC)c(OC)c(OC)c2)C(C)C)cc1OC [D-600]
potentiation of mobilization of intracellular Ca2+ elicited by extracellular divalent cations ([1]; 100 μM): potentiated the mobilization of intracellular | change in [Ca2+]i ([1]; 100 μM, 0.5 mM extracellular Ca2+): evoked no change | increase in [Ca2+]i at intermediate extracellular Ca2+ ([1]; 100 μM, 1-[…] extracellular Ca2+): small, but robust increase | block of influx of extracellular Ca2+ ([3]; 100 μM): blocked the influx of extracellular

Molecule: O=C(O)CN(CCOCCOCCN(CC(=O)O)CC(=O)O)CC(=O)O [EGTA]
effect on inward currents to Gd3+ ([2]; EGTA 100 μM, Gd3+ 600 μM): prevents oocytes expressing the calcium receptor from responding

Molecule: NC[C@H]1O[C@H](O[C@H]2[C@H](O)[C@@H](O[C@H]3O[C@H](CO)[C@@H](O)[C@H](N)[C@H]3O)[C@H](N)C[C@@H]2N)[C@H](O)[C@@H](O)[C@@H]1O [Kanamycin]
mobilization of intracellular Ca2+ [1]: without effect | net positive charge (net positive charge; pH 7.3): ~+4.5

net positive charge (net positive charge; pH 7.3): +1
Molecule: CCC[C@@H]1C[C@@H](C(=O)N[C@@H]([C@H]2O[C@H](SC)[C@H](O)[C@@H](O)[C@H]2O)[C@@H](C)O)N(C)C1 [Lincomycin]
mobilization of intracellular Ca2+ [1]: without effect

IC50 ([3]; Bos taurus, fura-2 loaded bovine parathyroid cells, read-out: IC50 for blocking increase in [Ca2+]i elicited by extracellular Ca2+): ~200 µM
Molecule: NCCCCCCCCCCCCNC(=O)Cc1ccc(O)cc1O [NPS 021]
change in [Ca2+]i by compound alone ([1]; 0.5 mM Ca2+): caused no change; also recorded: does not by itself cause any change | effect on increase in [Ca2+]i elicited by extracellular Ca2+ ([3]; 200 μM, [Ca2+] 0.5 to 2 mM): inhibited the increase | increase in [Ca2+]i evoked by extracellular Ca2+ ([3]; around 500 μM): abolished

Net (+) Charge (Table 1) (net positive charge): +10
Molecule: NCCCN(CCCN)CCCN(CCCN)CCCCN(CCCN)CCCN(CCCN)CCCN [NPS 381, N^1,N^1,N^5, N^10,N^14, N^14-hexakis-(3-aminopropyl) spermine]

Molecule: NCCCN(CCCN)CCCNCCCCNCCCN(CCCN)CCCN [NPS 382, N^1,N^1,N^5,N^14, N^14-tetrakis-(3-aminopropyl)spermine]
Net (+) Charge (Table 1) (net positive charge): +8

Net (+) Charge (Table 1) (net positive charge): +8
Molecule: NCCCN1CCCN(CCCN)CCN(CCCN)CCCN(CCCN)CC1 [NPS 383]

Molecule: COc1ccc(CC(=O)NCCCCCCCCCCCCN)cc1OC [NPS 384]
increase in [Ca2+]i (words) ([1]; 300 μM): did not evoke an increase | block of influx of extracellular Ca2+ ([3]; 300 μM): blocked influx of extracellular | effect of pretreatment on increases in [Ca2+]i elicited by extracellular Ca2+ ([3]; 100 to 1000 μM): depresses steady-state, but not transient increases | fall in [Ca2+]i ([3]; 100 to 1000 μM, buffer containing 2 mM CaCl2): prompt fall

Molecule: COc1cccc([C@H](C)NCCCc2ccccc2Cl)c1 [NPS S-568]
concentration eliciting responses ([2]; BoPCaR 1-injected oocytes): 100 µM

Molecule: CCCC(=O)N[C@@H](Cc1ccc(O)cc1)C(=O)NCCCCNCCCNCCCN [Philanthotoxin-433]
mobilization of intracellular Ca2+ [1]: without effect | net positive charge (net positive charge): +3

net positive charge (net positive charge): +2
Molecule: NCCCCN [Putrescine]

EC50 ([1]; bovine parathyroid cells, fura-2, read-out: EC50 PARATHYROID (Table 6)): 9 µM
Molecule: C[C@@H](NCCC(c1ccccc1)c1ccccc1)c1ccccc1 [R-Fendiline]

Molecule: [H]/N=C(/N)N[C@H]1[C@H](O)[C@@H](O)[C@H](O[C@@H]2O[C@@H](C)[C@](O)(C=O)[C@H]2O[C@@H]2O[C@@H](CO)[C@H](O)[C@@H](O)[C@@H]2NC)[C@@H](N/C(N)=N\[H])[C@@H]1O [Streptomycin]
EC50 ([1]; parathyroid cells, screened as in Example 1, read-out: EC50 (Table 1)): 600 µM | Net (+) Charge (Table 1) (net positive charge): +3 | net positive charge (net positive charge; pH 7.3): +3

Net (+) Charge (Table 1) (net positive charge): +5
Molecule: NCCNCCNCCNCCN [Tetraethylenepentamine (TEPA), Tetraethylenepentamine]

Molecule: NCCNCCNCCN [Triethylenetramine (TETA), triethylenetetramine]
EC50 ([1]; read-out: EC50 (Table 3)): […] | Net (+) Charge (Table 1) (net positive charge): +4

Molecule: CC(NCCCc1ccccc1)c1ccccc1 (stereo not drawn) [compound 1D]
relative potency ([1]; vs R-fendiline): nearly as potent as the parent molecule

Molecule: COc1ccc([C@@H]2Sc3ccccc3N(CCN(C)C)C(=O)[C@@H]2OC(C)=O)cc1 [diltiazem]
effective concentration, like verapamil and D-600 [1]: 100 µM

Molecule: N[C@@H](CCC(=O)O)C(=O)O [glutamate]
response of bovine parathyroid cells or Xenopus oocytes expressing calcium receptors to mGluR agonists [1]: did not respond

Molecule: COc1cccc(C(C)NCCC(c2ccccc2)c2ccccc2)c1 (stereo not drawn) [meta-Methoxyfendiline]
relative potency ([1]; vs NPS 467): as potent as NPS 467

Molecule: COC(=O)C1=C(C)NC(C)=C(C(=O)OC)C1c1ccccc1[N+](=O)[O-] [nifedipine]
effect on basal [Ca2+]i or increases evoked by extracellular Ca2+ [1]: None

Molecule: CCOC(=O)C1=C(C)NC(C)=C(C(=O)OC)C1c1cccc([N+](=O)[O-])c1 (stereo not drawn) [nitrendipine]
effect on basal [Ca2+]i or increases evoked by extracellular Ca2+ ([1]; 1 μM): None

Molecule: N[C@@H](Cn1oc(=O)[nH]c1=O)C(=O)O [quisqualate]
response of bovine parathyroid cells or Xenopus oocytes expressing calcium receptors to mGluR agonists [1]: did not respond

Molecule: COc1ccc(CCN(C)CCCC(C#N)(c2ccc(OC)c(OC)c2)C(C)C)cc1OC (stereo not drawn) [verapamil]
block of influx of extracellular Ca2+ ([3]; 100 μM): blocked the influx of extracellular

Molecule: Gentamicin
Net (+) Charge (Table 1) (net positive charge): +5 | net positive charge (net positive charge; pH 7.3): +5

Source: patent publication US5858684A, “Method of screening calcium receptor-active molecules” (priority 1995, dated 1999)
